# Reference: patent US20190185508A1, “DEUTERATED NUCLEOSIDE REVERSE TRANSCRIPTASE INHIBITORS” (Merck Sharp & Dohme Corp., priority 2017, published 2019)
# Assays:
# [1] = test system: HIV-1 (H9IIIB virus) replication in MT4-GFP cells; assay: Viking assay: antiviral potency in a multiple round HIV-1 infection assay; type: cell-based; conditions: Human immunodeficiency virus 1; 10% normal human serum; MT4-GFP cells infected with H9IIIB virus; inhibition of reproductive ratio R0; read-out: Viking, IC50 (10%NHS)
# Description: Assessing antiviral potency in a multiple round HIV-1 infection assay. HIV-1 replication was monitored using MT4-gag-GFP clone D3 (hereafter designate MT4-GFP), which are MT-4 cells modified to harbor a GFP reporter gene, the expression of which is dependent on the HIV-1 expressed proteins tat and rev. Productive infection of an MT4-GFP cell with HIV-1 results in GFP expression approximately 24 h post-infection.
# MT4-GFP cells were maintained at 37° C./5% CO2/90% relative humidity in RPMI 1640 supplemented with 10% fetal bovine serum, 100 U/mL penicillin/streptomycin, and 400 μg/mL G418 to maintain the reporter gene. For infections, MT4-GFP cells were placed in the same medium lacking G418 and infected overnight with H9IIIB virus at an approximate multiplicity of infection of 0.01 in the same incubation conditions. Cells were then washed and re-suspended in either RPMI 1640 containing 10% or 50% normal human serum at 1.6×10^5 cells/mL. Compound plates were prepared by dispensing compounds dissolved in DMSO into wells of 384 well poly D lysine-coated plates (0.2 μl/well) using an ECHO acoustic dispenser. Each compound was tested in a 10 point serial 3-fold dilution (typical final concentrations: 8.4 μM-0.43 nM). Controls included no inhibitor (DMSO only) and a combination of three antiviral agents (efavirenz, indinavir, and an integrase strand transfer inhibitor at final concentrations of 4 μM each). Cells were added (50 μL/well) to compound plates and the infected cells were maintained at 37° C./5% CO2/90% relative humidity.
# Infected cells were quantified at two time points, ˜48 h and ˜72 h post-infection, by counting the number of green cells in each well using an Acumen eX3 scanner. The increase in the number of green cells over ˜24 h period gives the reproductive ratio, R0, which is typically 5-15 and has been shown experimentally to be in logarithmic phase (data not shown). Inhibition of R0 is calculated for each well, and IC50s determined by non-linear 4-parameter curve fitting.
# [2] = CTG assay: cytotoxicity in CellTiter-Glo Luminescent Cell Viability Assay; type: cell-based; conditions: MT4-GFP cells, 10% normal human serum, 48 h incubation
# Description: Assessing Cytotoxicity in CellTiter-Glo Luminescent Cell Viability Assay (CTG).
# MT4-GFP cells were seeded in RPMI 1640 supplemented with 10% fetal bovine serum, 100 U/mL penicillin/streptomycin overnight at 37° C./5% CO2/90% relative humidity. Cells were then washed and resuspended in RPMI 1640 containing 10% normal human serum at a density of 0.8×10^5 cells/mL. Compound plates were prepared by dispensing compounds dissolved in DMSO into wells of 384 well solid black plates (Corning 3571) using an ECHO acoustic dispenser (0.2 μl/well). […] Controls included DMSO. Cells were added (50 μL/well) to compound plates and were maintained at 37° C./5% CO2/90% relative humidity. CTG reagent (Promega, G7573) was added to the cell plates after 48 h incubation according to the manufacturer's description. Luminescence signals were recorded on EnVision plate reader (PerkinElmer). CC50s were determined by non-linear 4-parameter curve fitting. The resulting data is shown in Table 3 with the marketed HIV nucleoside reverse transcriptase inhibitor AZT (azidothymidine, zidovudine) included as a control.
SMILES,IC50 [1] [µM],CC50 at 48 h [2] [µM]
"[2H][C@]1(O)C[C@H](n2ccc3c(N)nc(Cl)nc32)O[C@]1(C#C)CO [Example 6, (2R,3S,5R)-5-(4-amino-2-chloro-7H-pyrrolo[2,3-d]pyrimidin-7-yl)-2-ethynyl(3-^2H)-2-(hydroxymethyl)-tetrahydrofuran-3-ol]",0.0106,> 42
"Cc1cn([C@H]2C[C@H](N=[N+]=[N-])[C@@H](CO)O2)c(=O)[nH]c1=O [AZT, 3′-azido-3′-deoxythymidine, reference compound]",0.037,> 8.4
"[2H]C([2H])(O)[C@@]1(C#C)O[C@@H](n2cnc3c(N)nc(F)nc32)C[C@@H]1O [Example 8, [(2R,3S,5R)-5-(6-amino-2-fluoro-9H-purin-9-yl)-3-oxhydryl-2-ethynyloxolan-2-yl](^2H2)methanol]",0.0011,> 42
"[2H]C([2H])(O)[C@@]1(C#C)O[C@@H](n2ccc3c(N)nc(Cl)nc32)C[C@@H]1O [Example 11, (2R,3S,5R)-5-{4-amino-2-chloro-7H-pyrrolo[2,3-d]pyrimidin-7-yl}-2-ethynyl-2-[hydroxy(^2H2)methyl]oxolan-3-ol]",0.0056,> 42
[2H][C@@]1(O)C[C@H](n2cc(F)c3c(N)ncnc32)O[C@]1(C#C)CO [Example 1],2.31,> 42
"[2H][C@@]1(O)C[C@H](n2ccc3c(N)nc(Cl)nc32)O[C@]1(C#C)CO [Example 5, (2R,3R,5R)-5-(4-amino-2-chloro-7H-pyrrolo[2,3-d]pyrimidin-7-yl)-2-ethynyl(3-^2H)-2-(hydroxymethyl)-tetrahydrofuran-3-ol]",> 42,> 42
"[2H][C@]1(n2ccc3c(N)nc(Cl)nc32)C[C@H](O)[C@@](C#C)(CO)O1 [Example 14, (2R,3S,5R)-5-(4-amino-2-chloro-7H-pyrrolo[2,3-d]pyrimidin-7-yl)-2-ethynyl-2-(hydroxymethyl)tetrahydrofuran-5-^2H-3-ol]",0.0003,> 42
"[2H][C@]1(O)C[C@H](n2cnc3c(N)nc(F)nc32)O[C@]1(C#C)CO [Example 3, (2R,3S,5R)-5-(6-amino-2-fluoro-9H-purin-9-yl)-2-ethynyl-2-(hydroxymethyl)(3-^2H)oxolan-3-ol]",0.0012,> 42
"[2H][C@@]1(O)C[C@H](n2cnc3c(N)nc(F)nc32)O[C@]1(C#C)CO [Example 4, (2R,3R,5R)-5-(6-amino-2-fluoro-9H-purin-9-yl)-2-ethynyl-2-(hydroxymethyl)(3-^2H)oxolan-3-ol]",1.19,> 42
"[2H]C#C[C@]1(CO)O[C@@H](n2cnc3c(N)nc(F)nc32)C[C@@H]1O [Example 9, (2R,3S,5R)-5-(6-amino-2-fluoro-9H-purin-9-yl)-2-(^2H)ethynyl-2-(hydroxymethyl)oxolan-3-ol]",0.0006,> 42
"[2H][C@]1(n2cnc3c(N)nc(F)nc32)C[C@H](O)[C@@](C#C)(CO)O1 [Example 13, (2R,3S,5R)-5-(6-amino-2-fluoro-9H-purin-9-yl)-2-ethynyl-2-(hydroxymethyl)tetrahydrofuran-5-^2H-3-ol]",0.0002,> 42
"[2H]C(O)[C@@]1(C#C)O[C@@H](n2ccc3c(N)nc(Cl)nc32)C[C@@H]1O (stereo partly drawn) [Example 10, (2R,3S,5R)-5-{4-amino-2-chloro-7H-pyrrolo[2,3-d]pyrimidin-7-yl}-2-ethynyl-2-[hydroxy(^2H)methyl]oxolan-3-ol]",0.0055,> 42
"[2H]C(O)[C@@]1(C#C)O[C@@H](n2cnc3c(N)nc(F)nc32)C[C@@H]1O (stereo partly drawn) [Example 7, [(2R,3S,5R)-5-(6-amino-2-fluoro-9H-purin-9-yl)-3-oxhydryl-2-ethynyloxolan-2-yl](^2H)-methanol]",0.0007,> 42
"[2H]C#C[C@]1(CO)O[C@@H](n2ccc3c(N)nc(Cl)nc32)C[C@@H]1O [Example 12, (2R,3S,5R)-5-{4-amino-2-chloro-7H-pyrrolo[2,3-d]pyrimidin-7-yl}-2-(^2H)ethynyl-2-(hydroxymethyl)oxolan-3-ol]",0.0046,> 42
"[2H][C@]1(O)C[C@H](n2cc(F)c3c(N)ncnc32)O[C@]1(C#C)CO [Example 2, (2R,3S,5R)-5-{4-amino-5-fluoro-7H-pyrrolo[2,3-d]pyrimidin-7-yl}-2-ethynyl-2-(hydroxymethyl)(3-^2H)oxolan-3-ol]",0.0031,31.9
